Values of other authors, collected in patent US12673009B2, “Dental material” (King's College London, priority 2020, dated 2026).

Legend:
[1] = Tylkowski et al., 2013

[Li] [lithium]
safe therapeutic range of blood levels for patients on lithium therapies: 4.2-8.3 ppm
lithium concentration reported to be toxic [1]: ~700 ppm
